This is an account of results in patent EP0774461A1, “Excitatory amino acid derivatives” (ELI LILLY AND COMPANY, priority 1995, dated 1997).

The pIC50 is the negative decadic logarithm of the IC50, by convention in mol/L. A lower pIC50 goes with a high IC50.

The subject of this experiment is metabotropic glutamate receptors. Kind of experiment: displacement of 1S,3R-ACPD-sensitive [3H]glutamate binding to rat brain cell membranes. The settings on record: selective displacement of 1S,3R-ACPD-sensitive [3H]glutamate binding; crude membranes of rat forebrain. The protocol:
The binding of [^3H]glutamate was conducted with crude membranes of rat forebrain as described by Schoepp and True. Schoepp and True, Neuroscience Lett., 145, 100-104 (1992) and Wright et al., J. Neurochemistry 63: 938-945 (1994).

Each structure is given as a SMILES string. pIC50: −log10 of the molar value.

Take `N[C@]1(C(=O)O)CO[C@@H]2[C@@H](C(=O)O)[C@@H]21` (racemic) [Example 1, 1SR,4SR,5RS,6SR-4-Amino-2-Oxabicyclo[3.1.0]hexane-4,6-dicarboxylic Acid]: the pIC50 is 7.26.
